This is an account of results in ChEMBL document CHEMBL5634179, “Phenylhydrazone Alkaloids from the Deep-Sea Cold Seep Derived Fungus Talaromyces amestolkiae HDN21-0307” (J Nat Prod, 2024).

One assay relates to NCI-H446. The experiment in a line: Cytotoxicity against human NCI-H446 cells by SRB assay. Format: functional, cell-based. (In general: In SRB staining, fixed cells bind dye roughly in proportion to their protein.)
For a further assay, the system named is Pseudomonas aeruginosa. The experiment in a line: Antibacterial activity against Pseudomonas aeruginosa ATCC 27853 assessed as bacterial growth inhibition. In kind it is functional.
The next assay deals with Acinetobacter baumannii. The assay can be described thus: Antibacterial activity against Acinetobacter baumannii AB34 assessed as bacterial growth inhibition. Format: functional.
The next assay concerns MDA-MB-231. The assay can be described thus: Cytotoxicity against human MDA-MB-231 cells by SRB assay. In kind it is functional, cell-based.
Assay [1] has as its system Staphylococcus aureus. The assay can be described thus: Antibacterial activity against methicillin-resistant Staphylococcus aureus assessed as bacterial growth inhibition. Format: functional.
Another assay relates to Bacillus cereus. The experiment in a line: Antibacterial activity against Bacillus cereus ATCC 4342 assessed as bacterial growth inhibition. Format: functional.
A further assay relates to ASPC1. The assay can be described thus: Cytotoxicity against human ASPC1 cells by SRB assay. In kind it is functional, cell-based.
Assay [2] concerns Staphylococcus aureus. The assay can be described thus: Antibacterial activity against Staphylococcus aureus ATCC 29213 assessed as bacterial growth inhibition. Format: functional.
For the next assay, the system named is K562. The experiment in a line: Cytotoxicity against human K562 cells by MTT assay. Format: functional, cell-based. (In general: Tetrazolium assays rely on reduction of a dye to a coloured formazan, in cell work by metabolically active cells.)
Assay [3] in a line: Cytotoxicity against human H446/EP cells by SRB assay. Format: functional, cell-based.
The next assay deals with Staphylococcus. The experiment in a line: Antibacterial activity against methicillin-resistant coagulase-negative Staphylococcus assessed as bacterial growth inhibition. In kind it is functional.
In a further assay the test system is Bacillus subtilis. The experiment in a line: Antibacterial activity against Bacillus subtilis ATCC 6051 assessed as bacterial growth inhibition. Format: functional.

≈ marks a conversion by molar mass, not a printed value. Structures can show the parent of a compound that is named as a salt.

As a reminder, the IC50 is the concentration that inhibits the measured activity by half. A lower IC50 goes with greater potency. One may read the MIC as the lowest concentration that inhibits growth of the organism. On to `COc1cc(O)ccc1N/N=C1\C(=O)C=C(Cc2ccccc2)NC1=O`, for which the IC50 is 4.1 µM in the assay on NCI-H446; more than 15 µM in the assay with MDA-MB-231; more than 15 µM in the assay with ASPC1; more than 15 µM in the assay on K562; more than 15 µM in [3]. Further, the MIC with Pseudomonas aeruginosa is more than 150 µg/mL; with Acinetobacter baumannii it was more than 150 µg/mL; in the assay on Staphylococcus aureus [1] it was more than 150 µg/mL; in the assay with Bacillus cereus it was more than 150 µg/mL; with Staphylococcus aureus [2] it was 32 µg/mL (≈ 91.1 µM); in the assay on Staphylococcus, more than 150 µg/mL. Further, the minimum inhibitory concentration (MIC) with Bacillus subtilis was more than 150 µg/mL.

On to `COc1cc(O)ccc1N/N=C1/C=Cc2cc(O)cc(O)c2C1=O`, for which the IC50 (in the assay on NCI-H446; in the assay on MDA-MB-231; in the assay on ASPC1; with K562; in [3]) was more than 15 µM throughout. For the same molecule, the MIC in the assay with Pseudomonas aeruginosa is more than 150 µg/mL; with Acinetobacter baumannii, more than 150 µg/mL; with Staphylococcus aureus [1], 64 µg/mL (≈ 196 µM); with Bacillus cereus, 128 µg/mL (≈ 392 µM); in the assay on Staphylococcus aureus [2], 128 µg/mL (≈ 392 µM); in the assay on Staphylococcus, 64 µg/mL (≈ 196 µM). Besides, the MIC with Bacillus subtilis turned out to be 128 µg/mL (≈ 392 µM).

Turning to `COc1cc(O)ccc1N/N=C1/C=Cc2cccc(O)c2C1=O`, the IC50 (in the assay with NCI-H446; in the assay on MDA-MB-231; in the assay on ASPC1; in the assay with K562; in [3]) was more than 15 µM throughout. Besides, the MIC is more than 150 µg/mL with Pseudomonas aeruginosa; more than 150 µg/mL in the assay with Acinetobacter baumannii; 128 µg/mL (≈ 412 µM) with Staphylococcus aureus [1]; 128 µg/mL (≈ 412 µM) in the assay with Bacillus cereus; 128 µg/mL (≈ 412 µM) with Staphylococcus aureus [2]; 128 µg/mL (≈ 412 µM) in the assay on Staphylococcus. For the same molecule, the MIC in the assay with Bacillus subtilis came to 128 µg/mL (≈ 412 µM).

Take `COc1cc(O)ccc1N/N=C1/C(=O)[C@@](C)(OC(=O)c2c(C)cc(O)cc2O)C(=O)C2=C1C=C(/C=C/C(=O)O)OC2`: the IC50 in the assay on NCI-H446 is 10.2 µM; in the assay on MDA-MB-231, more than 15 µM; in the assay with ASPC1 it was more than 15 µM; with K562 it was more than 15 µM; in assay [3], more than 15 µM. Also, the MIC in the assay with Pseudomonas aeruginosa is more than 150 µg/mL; with Acinetobacter baumannii it was more than 150 µg/mL; in the assay on Staphylococcus aureus [1] it was more than 150 µg/mL; in the assay on Bacillus cereus, more than 150 µg/mL; with Staphylococcus aureus [2] it was 64 µg/mL (≈ 113 µM); in the assay with Staphylococcus it was more than 150 µg/mL. In addition, the MIC in the assay on Bacillus subtilis was more than 150 µg/mL.

On to `O=C(O)c1cn(C2CC2)c2cc(N3CCNCC3)c(F)cc2c1=O` [CIPROFLOXACIN], for which the MIC with Acinetobacter baumannii came to 16 µg/mL (≈ 48.3 µM); with Bacillus cereus, 0.063 µg/mL (≈ 0.19 µM); in the assay with Staphylococcus, 4 µg/mL (≈ 12.1 µM); with Bacillus subtilis it was 0.63 µg/mL (≈ 1.9 µM).

On to `COc1cccc2c1C(=O)c1c(O)c3c(c(O)c1C2=O)C[C@@](O)(C(=O)CO)C[C@@H]3O[C@H]1C[C@H](N)[C@H](O)[C@H](C)O1` [DOXORUBICIN HYDROCHLORIDE], for which the IC50 in the assay on NCI-H446 turned out to be 0.6 µM; in the assay with ASPC1 it was 0.21 µM; in assay [3], 6 µM.
